This passage reports EC50 results from patent US20240101546A1, “HETEROARYL-ACETYLENES, PHARMACEUTICAL COMPOSITIONS THEREOF, AND THEIR THERAPEUTIC APPLICATIONS” (Eubulus Biotherapeutics Inc., priority 2020, published 2024).

This assay relates to hepatocellular carcinoma cell line Hub-7. In words: Cell proliferation assay, Hub-7 (CELL-TITER GLO). The conditions noted are these: Hub-7 cells, 24 h incubation, cell viability by CELL-TITER GLO, top concentration 10 μM; read-out: EC50, Inhibition of Hub-7 Cell Proliferation. The class given is cell-based. An outline of the steps:
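Hub-7 cells, 4,000 per well, seeded overnight, then exposed 24 h to compound from 10 μM top in 3-fold serial dilution. Viability read by CELL-TITER GLO luminescence; EC50 derived and binned into potency categories.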
`C#Cc1nc(C(=O)NCc2cccc(NC(C)=O)c2)cs1` [Compound C94, N-(3-Acetamidobenzyl)-2-ethynylthiazole-4-carboxamide]: the EC50 was 1000 to 5000 nM.
For `C#Cc1nc(C(=O)N2CCCC(CO)C2)cs1` (centres unmarked) [Compound D33, (2-Ethynylthiazol-4-yl)(3-(hydroxymethyl)piperidin-1-yl)methanone], the EC50 is over 5000 nM.
Take `C#Cc1nc(C(=O)NCCc2ccc(-c3cncc4ncsc34)cc2)cs1` [Compound C19, 2-Ethynyl-N-(4-(thiazolo[4,5-c]pyridin-7-yl)phenethyl)thiazole-4-carboxamide]: the EC50 is 200 to 1000 nM.
The result for `C#Cc1nc(C(=O)NCCc2ccc(-c3cc(C(N)=O)cc4ncsc34)cc2)cs1` [Compound C8, 7-(4-(2-(2-Ethynylthiazole-4-carboxamido)ethyl)phenyl)benzo[d]thiazole-5-carboxamide] reads 200 to 1000 nM.
Regarding `C#Cc1nc(C(=O)NCc2cccc3[nH]ccc23)cs1` [Compound C139, N-((1H-Indol-4-yl)methyl)-2-ethynylthiazole-4-carboxamide], the EC50 is over 5000 nM.
On to `C#Cc1nc(C(=O)NCCc2ccc(C#N)cc2)cs1` [Compound C102, N-(4-Cyanophenethyl)-2-ethynylthiazole-4-carboxamide], for which the EC50 lay in the range of 200 to 1000 nM.
For the molecule `C#Cc1nc(C(=O)NCCc2ccc(-c3c(F)ccc4ncsc34)cc2)cs1` [Compound C5, 2-Ethynyl-N-(4-(6-fluorobenzo[d]thiazol-7-yl)phenethyl)thiazole-4-carboxamide], the EC50 is at most 200 nM.
For `C#Cc1nc(C(=O)NCCc2cccc(N)c2)cs1` [Compound C85, N-(3-Aminophenethyl)-2-ethynylthiazole-4-carboxamide], the EC50 lay within 1000 to 5000 nM.
With `C#Cc1nc(C(=O)NCCc2ccc(-c3cccc4ncsc34)c(F)c2)cs1` [Compound C2, N-(4-(Benzo[d]thiazol-7-yl)-3-fluorophenethyl)-2-ethynylthiazole-4-carboxamide], the EC50 was at most 200 nM.
Regarding `C#Cc1nc(C(=O)NCc2ccc(-c3cn[nH]c3)cc2)cs1` [Compound C92, N-(4-(1H-Pyrazol-4-yl)benzyl)-2-ethynylthiazole-4-carboxamide], the EC50 lay in the range of 1000 to 5000 nM.
In the case of `C#Cc1nc(NC(=O)NCc2ccc(-c3cc4ncsc4cc3F)cc2)cs1` [Compound A12, 1-(2-Ethynylthiazol-4-yl)-3-(4-(6-fluorobenzo[d]thiazol-5-yl)benzyl)urea], the EC50 lay within 200 to 1000 nM.
Take `C#Cc1nc(C(=O)NCc2ccc(S(C)(=O)=O)cc2)cs1` [Compound C108, 2-Ethynyl-N-(4-(methylsulfonyl)benzyl)thiazole-4-carboxamide]: the EC50 is 1000 to 5000 nM.
Take `C#Cc1nc(C(=O)N2CCC(O)CC2)cs1` [Compound D31, (2-Ethynylthiazol-4-yl)(4-hydroxypiperidin-1-yl)methanone]: the EC50 was over 5000 nM.
Under `C#Cc1nc(C(=O)NCCc2ccc(-c3cccc4nn(C)cc34)cc2)cs1` [Compound C32, 2-Ethynyl-N-(4-(2-methyl-2H-indazol-4-yl)phenethyl)thiazole-4-carboxamide] stands 200 to 1000 nM; under `C#Cc1nc(C(=O)NCCc2ccc(-c3cc4ncsc4cc3F)cc2)cs1` [Compound C1, 2-Ethynyl-N-(4-(6-fluorobenzo[d]thiazol-5-yl)phenethyl)thiazole-4-carboxamide], 200 to 1000 nM; under `C#Cc1nc(C(=O)N2CCN(c3ccccc3)CC2)cs1` [Compound D28, (2-Ethynylthiazol-4-yl)(4-phenylpiperazin-1-yl)methanone], 200 to 1000 nM.
With `C#Cc1nc(C(=O)NCCc2ccc(-c3cc(C(=O)OC)cc4ncsc34)cc2)cs1` [Compound C10, Methyl 7-(4-(2-(2-ethynylthiazole-4-carboxamido)ethyl)phenyl)benzo[d]thiazole-5-carboxylate], the EC50 is at most 200 nM.
Under `C#Cc1nc(NC(=O)NCc2ccc(-c3cc(C(=O)N(C)C)cc4c3cnn4C)cc2)cs1` [Compound A23, 4-(4-((3-(2-Ethynylthiazol-4-yl)ureido)methyl)phenyl)-N,N,1-trimethyl-1H-indazole-6-carboxamide] stands 200 to 1000 nM; under `C#Cc1nc(C(=O)NCCc2ccc(NC(C)=O)cc2)cs1` [Compound C88, N-(4-Acetamidophenethyl)-2-ethynylthiazole-4-carboxamide], 1000 to 5000 nM.
With `C#Cc1nc(C(=O)NCCc2ccc(-c3ccccc3S(=O)(=O)N(C)C)cc2)cs1` [Compound C6, N-(2-(2′-(N,N-Dimethylsulfamoyl)-[1,1′-biphenyl]-4-yl)ethyl)-2-ethynylthiazole-4-carboxamide], the EC50 is at most 200 nM.
Turning to `C#Cc1nc(C(=O)NCc2ccc(-c3cscn3)cc2)cs1` [Compound C55, 2-Ethynyl-N-(4-(thiazol-4-yl)benzyl)thiazole-4-carboxamide], the EC50 is 200 to 1000 nM.
Consider `C#Cc1nc(C(=O)NCc2cccc(Cl)c2)c(-c2ccccc2)s1` [Compound C56, N-(3-Chlorobenzyl)-2-ethynyl-5-phenylthiazole-4-carboxamide], for which the EC50 was in the range of 1000 to 5000 nM.
`C#Cc1nc(C(=O)NCCc2ccccc2)cs1` [Compound C138, 2-Ethynyl-N-phenethylthiazole-4-carboxamide]: the EC50 is 1000 to 5000 nM.
Take `C#Cc1nc(C(=O)N(C)Cc2ccccc2)cs1` [Compound C137, N-Benzyl-2-ethynyl-N-methylthiazole-4-carboxamide]: the EC50 was in the range of 1000 to 5000 nM.
As for `C#Cc1nc(C(=O)N2CCN(c3ccc(-c4cccc5ncsc45)cc3Cl)CC2)cs1` [Compound D9, (4-(4-(Benzo[d]thiazol-7-yl)-2-chlorophenyl)piperazin-1-yl)(2-ethynylthiazol-4-yl)methanone], the EC50 was at most 200 nM.
For `C#Cc1nc(C(=O)NCc2cccc(Cl)c2)cs1` [Compound C125, N-(3-Chlorobenzyl)-2-ethynylthiazole-4-carboxamide], the EC50 is at most 200 nM.
Turning to `C#Cc1nc(C(=O)NCCc2ccc(-c3cccc4c3ccn4C)cc2)cs1` [Compound C50, 2-Ethynyl-N-(4-(1-methyl-1H-indol-4-yl)phenethyl)thiazole-4-carboxamide], the EC50 was at most 200 nM.
As to `C#Cc1nc(C(=O)NCCc2ccc(-c3cccc4ncccc34)cc2)cs1` [Compound C23, 2-Ethynyl-N-(4-(quinolin-5-yl)phenethyl)thiazole-4-carboxamide], the EC50 fell in the range of 200 to 1000 nM.
`C#Cc1nc(C(=O)N2CCN(c3ccc(-c4cccc5ncsc45)cc3)CC2)cs1` [Compound D17, (4-(4-(Benzo[d]thiazol-7-yl)phenyl)piperazin-1-yl)(2-ethynylthiazol-4-yl)-methanone]: the EC50 is at most 200 nM.
Under `C#Cc1nc(NC(=O)NCc2ccc(-c3c(C(=O)NC)ccc4ncsc34)cc2)cs1` [Compound A17, 7-(4-((3-(2-Ethynylthiazol-4-yl)ureido)methyl)phenyl)-N-methylbenzo[d]-thiazole-6-carboxamide] stands 1000 to 5000 nM; under `N#Cc1nc(C(=O)NCc2ccccc2)cs1` [Compound C90, N-Benzyl-2-cyanothiazole-4-carboxamide], over 5000 nM.
For the molecule `C#Cc1nc(C(=O)N(C)CCc2ccc([N+](=O)[O-])cc2)cs1` [Compound C100, 2-Ethynyl-N-methyl-N-(4-nitrophenethyl)thiazole-4-carboxamide], the EC50 fell in the range of 200 to 1000 nM.
